Measurements from publication PMC10285648, “iTAG an optimized IMiD-induced degron for targeted protein degradation in human and murine cells” (iScience, 2023).

What was measured:
cMYC-EGFP-DCD19 = assay: Flow cytometry of EGFP signal, cMYC-EGFP-DCD19 in HMEC; type: cell-based, human; conditions: 10uM, 4h
Excerpt: (§1) To systematically delineate the optimal DCD/degrader combination for targeted protein degradation, we undertook a matrix approach evaluating all 23 DCD tags against 6 small molecule degraders. […] To control for any potential off-target effects of the IMiD/CeLMOD agents that could indirectly affect the target of interest, we designed controls in which the specific DCD and the EGFP sequences were interspaced by a P2A ribosomal “skipping” sequence,[32] leading to separate translation of the DCD and the target protein (Figure 1A). These constructs were then inserted into a doxycycline-inducible lentiviral vector system and stably expressed in hTERT immortalized human mammary epithelial cells (HMEC), a suitable model to assess the functional consequences of cMYC degradation. cMYC was tagged at the C-terminus end for the initial screening experiments.
(§2) Figure 1 Design and experimental evaluation of the DCD tags (A) Representation of the experimental pipeline used to evaluate the different DCD constructs. […] Median EGFP intensity was measured in each condition using flow cytometry (3 independent experiments, normalized to the control and represented as mean ± SD). […] The protein lysates were probed for cMYC levels using western blotting. […] Target loss was evaluated either by measuring EGFP median intensity using flow cytometry or western blotting for cMYC protein (3 independent experiments, normalized to the control and represented as mean ± SD). […] Target loss was evaluated as in (D) (3 independent experiments, normalized to the control and represented as mean ± SD). […] Protein lysates were collected and probed for cMYC and p21 using western blotting. […] Protein lysates were collected and probed for cMYC and p21 using western blotting. […] These were left out as controls with no test substance.
(§3) Following degrader treatment cells were collected and DAPI was added to the cell suspension at 1 μg/mL to allow the exclusion of dead cells. EGFP signal was measured using BD LSR II flow cytometer (BD Biosciences). FlowJo 10 Software (FlowJo) was used for data processing.

[1] = system: HMEC, HEK293T, MDA-MB-231, Kelly cells; assay: Cell viability assay (CellTiter-Blue); type: cell-based, human; conditions: 5 days treatment
Method: By endpoint, CellTiter-Blue reagent (Promega) was added to each well, incubated for 3 h at 37°C and absorbance was measured with a plate reader at 570nm. Average background absorbance value was subtracted from all readings when plotting the viability curve.

CRBN/DDB1 complex = molecular target: T1, CRBN/DDB1 complex (Homo sapiens, UniProt Q96SW2); assay: IMiD-based fluorescence polarisation assay; type: binding; conditions: displacement of Sulfo-Cy5 IMiD probe (5 nM), 80 nM CRBN/DDB1; read-out: FP IC50
T1 construct: WT full length CRBN/DDB1 complex was added; made in house; host or cells: Sf9 insect cells (baculovirus)
Method: First, we wanted to confirm that the IMiD/CELMoDs used in our study were effectively binding to CRBN and to estimate their binding affinities. […] WT full length CRBN/DDB1 complex was added with a Tempest liquid handler (Formulatrix, USA) to all wells to a final concentration of 80 nM, except for low controls where WT CRBN was substituted with mutant [MUT]-[MUT] CRBN (mutant unable to bind the probe). The Echo was also used to add 5 nM final concentration of Sulfo-Cy5 fluorescent IMiD-based probe (Figure S6A) to each well. Plates were sealed, centrifuged at 200 g for 1 min and stored overnight at 4°C. Fluorescence Polarization and total fluorescence were read using a PHERAstar FSX plate reader (BMG Labtech, Germany).

cMYC-EGFP-DCD2 = assay: Flow cytometry of EGFP signal, cMYC-EGFP-DCD2 in HMEC; type: cell-based, human; conditions: 10uM, 4h
Excerpt: To systematically delineate the optimal DCD/degrader combination for targeted protein degradation, we undertook a matrix approach evaluating all 23 DCD tags against 6 small molecule degraders. First, we fused the DCD tags with Enhanced Green Fluorescent Protein (EGFP) and a target protein of interest, focusing initially on the proto-oncogene cMYC (Figure 1A). cMYC function has been extensively studied and downstream perturbations of cMYC loss are well characterised,[29]^,[30]^,[31] providing a good reference to test the iTAG system. […]
Figure 1 Design and experimental evaluation of the DCD tags (A) Representation of the experimental pipeline used to evaluate the different DCD constructs. […] Median EGFP intensity was measured in each condition using flow cytometry (3 independent experiments, normalized to the control and represented as mean ± SD). […] Target loss was evaluated either by measuring EGFP median intensity using flow cytometry or western blotting for cMYC protein (3 independent experiments, normalized to the control and represented as mean ± SD). […] Target loss was evaluated as in (D) (3 independent experiments, normalized to the control and represented as mean ± SD). […]

cMYC-EGFP-DCD23 = assay: Degradation of cMYC-EGFP-DCD23 in HMEC (flow cytometry, western blotting); type: cell-based, human; conditions: EGFP cellular degradation data for the DCD23, related to Figure 1 (10uM, 4h)
Excerpt: as §1, §2, §3
Cells were lysed with SDS lysis buffer (2% SDS, 10% Glycerol, 50mM Tris pH 6.8) and boiled at 95°C for 30min. Protein concentration was measured using Pierce BCA Protein Assay Kit (ThermoFischer) following manufacturer’s recommendations. Samples were ran in NuPAGETM 10% Bis-Tris Midi electrophoresis gels (Invitrogen) using NuPAGETM MES SDS running buffer (ThermoFischer Scientific).
For western blotting membranes were blocked in a solution of 5% (w/v) bovine serum albumin (BSA; Sigma-Aldrich) dissolved in TBS-0.1% Tween 20 (Sigma-Aldrich) then incubated at 4°C overnight with the primary antibodies diluted in 5% (w/v) BSA/TBS-T. The membranes where then washed and incubated with anti-mouse and/or anti-rabbit secondary antibodies (LI-COR Biosciences) for 2h at RT diluted in 5% (w/v) BSA/TBS-T then washed and imaged using the LI-COR Odyssey (LI-COR Biosciences). Images were analyzed using Image Studio Lite software (LI-COR Biosciences).

T1 sequence (Q96SW2 whole entry): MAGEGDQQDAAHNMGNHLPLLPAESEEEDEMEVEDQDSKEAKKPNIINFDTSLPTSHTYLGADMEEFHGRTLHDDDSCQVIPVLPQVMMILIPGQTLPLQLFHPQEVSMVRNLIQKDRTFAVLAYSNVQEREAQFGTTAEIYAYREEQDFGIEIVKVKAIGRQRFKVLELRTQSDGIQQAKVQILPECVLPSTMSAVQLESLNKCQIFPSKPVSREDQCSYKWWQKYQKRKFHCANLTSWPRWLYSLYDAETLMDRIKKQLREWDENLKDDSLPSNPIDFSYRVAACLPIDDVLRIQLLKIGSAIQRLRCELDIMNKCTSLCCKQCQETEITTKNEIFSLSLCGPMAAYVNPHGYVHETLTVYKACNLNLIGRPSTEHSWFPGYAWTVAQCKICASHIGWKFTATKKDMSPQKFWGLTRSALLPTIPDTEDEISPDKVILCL
T1 sequence (Q16531 whole entry partner): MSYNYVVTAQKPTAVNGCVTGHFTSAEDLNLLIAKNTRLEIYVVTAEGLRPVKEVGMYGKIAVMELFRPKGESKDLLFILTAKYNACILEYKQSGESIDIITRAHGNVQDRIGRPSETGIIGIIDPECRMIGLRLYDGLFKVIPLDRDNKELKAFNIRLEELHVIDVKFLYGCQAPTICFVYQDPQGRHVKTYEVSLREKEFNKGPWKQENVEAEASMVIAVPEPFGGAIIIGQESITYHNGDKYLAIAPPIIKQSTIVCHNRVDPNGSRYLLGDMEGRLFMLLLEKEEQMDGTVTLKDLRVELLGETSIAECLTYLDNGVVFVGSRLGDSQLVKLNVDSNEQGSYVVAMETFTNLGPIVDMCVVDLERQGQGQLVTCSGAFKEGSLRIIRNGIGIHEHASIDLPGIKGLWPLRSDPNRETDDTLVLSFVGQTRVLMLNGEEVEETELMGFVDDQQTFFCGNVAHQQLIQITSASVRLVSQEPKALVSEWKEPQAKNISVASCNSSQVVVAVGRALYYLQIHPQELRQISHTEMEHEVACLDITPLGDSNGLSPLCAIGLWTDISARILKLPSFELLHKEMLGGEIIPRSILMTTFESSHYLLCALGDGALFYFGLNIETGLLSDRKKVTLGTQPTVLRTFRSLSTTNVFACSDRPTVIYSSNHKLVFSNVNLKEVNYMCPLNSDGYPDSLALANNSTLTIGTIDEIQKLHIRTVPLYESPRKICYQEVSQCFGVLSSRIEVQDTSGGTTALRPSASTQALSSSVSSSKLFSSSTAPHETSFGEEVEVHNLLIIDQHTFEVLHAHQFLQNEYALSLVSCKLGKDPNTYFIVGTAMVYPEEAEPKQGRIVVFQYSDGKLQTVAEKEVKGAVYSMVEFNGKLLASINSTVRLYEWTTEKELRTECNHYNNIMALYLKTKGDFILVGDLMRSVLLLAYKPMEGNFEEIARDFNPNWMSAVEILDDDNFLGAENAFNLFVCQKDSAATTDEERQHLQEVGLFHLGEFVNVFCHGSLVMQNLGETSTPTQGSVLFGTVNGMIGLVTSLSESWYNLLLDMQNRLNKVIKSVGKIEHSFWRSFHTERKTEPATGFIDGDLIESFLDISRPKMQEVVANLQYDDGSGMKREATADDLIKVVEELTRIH

With `Cc1ccc(NC(=O)NCc2ccc3c(c2)CN(C2CCC(=O)NC2=O)C3=O)cc1Cl` (centres unmarked) [CC885] the “loss of cMYC-EGFP signal” value (cMYC-EGFP-DCD19) was “robust loss of cMYC-EGFP signal”, the cellular toxicity [1] was “significant cellular toxicity” and the IC50 (CRBN/DDB1 complex) was 0.107 µM. For the same compound, the “change of EGFP signal” value (cMYC-EGFP-DCD2) was “strong decrease in EGFP signal” and the “Degradation as Log2 FC relative to DMSO” value (cMYC-EGFP-DCD23) was -1.27 Log2 FC.
